Data on two molecules can be found in US20200399262A1, “COMPOUNDS FOR INHIBITING PROTEIN DEGRADATION AND METHODS OF USE THEREOF IN THE TREATMENT OF CANCER” (PI Therapeutics Ltd, priority 2018, published 2020).

Holding throughout (format): cell-based
One assay relates to THP-1. The assay can be described thus: Cell viability panel, ATPlite 1Step. As to conditions: Homo sapiens, Acute monocytic leukemia, 72 h exposure, read-out: Compound EC50. Put shortly: (§1)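 ATPlite lines: 200-6400 cells/well in ATCC-recommended medium, 8 concentrations (0.04-32 μM), 72 h, ATP luminescence for viability. CyQUANT lines: seeded 24 h before, 5,000-40,000 cells/well in RPMI 1640/10% FBS/2 mM L-glutamine, 0.04-1 μM, 48 h at 37° C.; EC50 from growth-normalized signal versus time zero.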

The next assay deals with LoVo. The assay can be described thus: Cell viability panel, ATPlite 1Step. The following applies: Homo sapiens, Colon adenocarcinoma, 72 h exposure, read-out: Compound EC50. Put shortly:
as §1

The next assay concerns RS4-11. The assay can be described thus: Cell viability panel, ATPlite 1Step. As to conditions: Homo sapiens, B acute lymphoblastic leukemia, 72 h exposure, read-out: Compound EC50. Put shortly:
as §1

In a further assay the test system is OVCAR-3. The assay can be described thus: Cell viability panel, ATPlite 1Step. As to conditions: Homo sapiens, High grade ovarian serous adenocarcinoma, 72 h exposure, read-out: Compound EC50. The method in brief: as §1
Background: In ATP-based viability assays light output follows the ATP content of the culture.

The subject of a further assay is ES-2. Put plainly: Cell viability panel, ATPlite 1Step. The following applies: Homo sapiens, Ovarian clear cell adenocarcinoma, 72 h exposure, read-out: Compound EC50. Put shortly: as §1
The test system of the next assay is A-204. Put plainly: Cell viability panel, ATPlite 1Step. As to conditions: Homo sapiens, A204, Embryonal rhabdomyosarcoma, 72 h exposure, read-out: Compound EC50. Put shortly: as §1
A further assay concerns A388. The assay can be described thus: Cell viability panel, ATPlite 1Step. The following applies: Squamous cell carcinoma, 72 h exposure, read-out: Compound EC50. Put shortly:
as §1

In another assay the test system is CCRF-CEM. Put plainly: Cell viability panel, ATPlite 1Step. The following applies: Homo sapiens, T acute lymphoblastic leukemia, 72 h exposure, read-out: Compound EC50. Put shortly: as §1
For a further assay, the system named is HT. The assay can be described thus: Cell viability panel, ATPlite 1Step. The following applies: Homo sapiens, Diffuse large B-cell lymphoma, 72 h exposure, read-out: Compound EC50. The method in brief:
as §1

The test system of another assay is BT-549. The assay can be described thus: Cell viability panel, ATPlite 1Step. As to conditions: Homo sapiens, Invasive ductal carcinoma, 72 h exposure, read-out: Compound EC50. The method in brief: as §1
Another assay relates to Daoy. Put plainly: Cell viability panel, ATPlite 1Step. As to conditions: Homo sapiens, Medulloblastoma, 72 h exposure, read-out: Compound EC50. Put shortly: as §1
The next assay deals with SW48. The assay can be described thus: Cell viability panel, ATPlite 1Step. As to conditions: Homo sapiens, Colon adenocarcinoma, 72 h exposure, read-out: Compound EC50. Put shortly:
as §1

The next assay concerns A375. Put plainly: Cell viability panel, ATPlite 1Step. As to conditions: Homo sapiens, A-375, Amelanotic melanoma, 72 h exposure, read-out: Compound EC50. Put shortly:
as §1

In a further assay the test system is T24. Put plainly: Cell viability panel, ATPlite 1Step. As to conditions: Homo sapiens, T-24, Bladder carcinoma, 72 h exposure, read-out: Compound EC50. Put shortly: as §1
The subject of another assay is KU812. Put plainly: Cell viability panel, ATPlite 1Step. The following applies: Homo sapiens, Chronic myelogenous leukemia, 72 h exposure, read-out: Compound EC50. Put shortly:
as §1

The subject of a further assay is Jurkat E6.1. The assay can be described thus: Cell viability panel, ATPlite 1Step. The following applies: Homo sapiens, T acute lymphoblastic leukemia, 72 h exposure, read-out: Compound EC50. The method in brief:
as §1

For a further assay, the system named is KLE. Put plainly: Cell viability panel, ATPlite 1Step. The following applies: Homo sapiens, Endometrial adenocarcinoma, 72 h exposure, read-out: Compound EC50. Put shortly: as §1
Another assay deals with A-704. Put plainly: Cell viability panel, ATPlite 1Step. The following applies: Homo sapiens, A704, Renal cell carcinoma, 72 h exposure, read-out: Compound EC50. Put shortly: as §1
The next assay deals with A-549. The assay can be described thus: Cell viability panel, ATPlite 1Step. The following applies: Homo sapiens, A549, Lung adenocarcinoma, 72 h exposure, read-out: Compound EC50. Put shortly: as §1
A further assay concerns SNU-5. The assay can be described thus: Cell viability panel, ATPlite 1Step. The following applies: Homo sapiens, Gastric carcinoma, 72 h exposure, read-out: Compound EC50. Put shortly:
as §1

For another assay, the system named is Hs 746T. The assay can be described thus: Cell viability panel, ATPlite 1Step. As to conditions: Homo sapiens, Hs746T, Gastric adenocarcinoma, 72 h exposure, read-out: Compound EC50. Put shortly:
as §1

The next assay has as its system MALME-3M. The assay can be described thus: NCI60 screen cytotoxicity. As to conditions: Homo sapiens, Melanoma, read-out: Compound B1 EC50.

Molecules are shown by their SMILES.

For orientation: EC50 means the concentration needed to bring the measured effect to its halfway point. As to `CN(C)CCCS(=O)(=O)N1C/C(=C\c2ccc(C#N)cc2)C(=O)/C(=C/c2ccc(C#N)cc2)C1` [Compound AA], the EC50 with THP-1 is 300 to 1000 nM; in the assay with LoVo, under 300 nM; in the assay on RS4-11, under 300 nM; in the assay on OVCAR-3, 300 to 1000 nM; with ES-2, under 300 nM; in the assay with A-204, under 300 nM. For the same molecule, the EC50 in the assay with A388 is under 300 nM; in the assay with CCRF-CEM, under 300 nM; with HT it was under 300 nM; in the assay with BT-549 it was under 300 nM; with Daoy it was under 300 nM; in the assay on SW48, 300 to 1000 nM. Also, the EC50 in the assay with A375 was under 300 nM; in the assay with T24 it was under 300 nM; in the assay with KU812 it was under 300 nM; in the assay on Jurkat E6.1, under 300 nM; in the assay on KLE it was at least 1000 nM; in the assay with A-704 it was 300 to 1000 nM. Moreover, the EC50 was at least 1000 nM with A-549, 300 to 1000 nM in the assay on SNU-5 and under 300 nM in the assay on Hs 746T.

As to `CN(C)CC(=O)NCC(=O)N1C/C(=C\c2ccc(C#N)cc2)C(=O)/C(=C/c2ccc(C#N)cc2)C1` [Compound B1], the concentration giving a half-maximal response (EC50) with MALME-3M is under 300 nM.
